Counter-ions that a name gives are not always drawn.
Test system: experimental osteoarthritis induced by partial medial meniscectomy in guinea pigs
Experiment: Experimental osteoarthritis induced by partial medial meniscectomy in guinea pigs: chondroprotective activity and modified Mankin histological evaluation
Format: in vivo, Dunkin Hartley (DH) guinea pigs
Conditions: CS 95 mg/kg/day, Man 60 mg/kg/day; for average chondroprotective activity (GAGs, cartilage structure, chondrocyte proliferation): oral gavage once a day for 70 days, blank control group 100%, operated control group 0%; for global histopathological score (modified Mankin) with respect to the operated group, result in words: oral, 70 days
From the text: The objective was to evaluate the chondroprotective activity (cartilage protective activity) of a composition formed by a mixture of chondroitin sulphate and mannosamine hydrochloride as sole active components, in a model of experimental osteoarthritis induced by partial medial meniscectomy in guinea pigs (A. M. Bendele, Progressive chronic osteoarthritis in femorotibial joints of partial medial meniscectomized guinea pigs, Vet. Pathol. 24, 444-448 (1987)), comparing said activity with the chondroprotective activity of chondroitin sulphate and of mannosamine hydrochloride.
Dunkin Hartley (DH) guinea pigs with a weight comprised between 580 and 699 g were used. A partial medial meniscectomy was performed in a part of them.
The following treatment groups were formed: blank control group (corresponding to healthy guinea pigs), operated control group (corresponding to guinea pigs in which a partial medial meniscectomy was performed to induce an experimental osteoarthritis in them), operated guinea pigs to which the sodium salt of chondroitin sulphate (95 mg/kg of body weight/day) was administered, operated guinea pigs to which mannosamine hydrochloride (60 mg/kg of body weight/day) was administered, operated guinea pigs to which a mixture of sodium salt of chondroitin sulphate (95 mg/kg of body weight/day) and mannosamine hydrochloride (60 mg/kg of body weight/day) was administered.
On the day after the surgery, the daily administration of the corresponding oral treatments by means of gastric gavage was started, the carrier used being water for injection. The blank control and operated control groups only received the carrier (water for injection) by oral route.
The treatments were administered once a day for 70 days (ten weeks). The body weight and the clinical signs of the animals were recorded twice a day. No remarkable clinical signs were observed throughout the treatment period.
On the day after the administration had ended, the animals were sacrificed by anaesthetic overdose (pentobarbital sodium) and the femorotibial joint of the right rear leg was removed for its fixing in 10% formol for at least 48 hours. Then, they were decalcified, included in paraffin, the necessary sections were obtained and the stainings with Hematoxylin-Eosin and Safranin-O-Fast Green (or Toluidine Blue) were performed for their histological evaluation, which was performed by a pathologist in a blind manner.
The severity of the osteoarthritic injuries was evaluated by means of the modified histologic/histochemical scale of Mankin et al. (H J. Mankin and L. Lipiello Biochemical and metabolic abnormalities in articular cartilage from osteoarthritic human hips. J. Bone Joint Surg.-Amer. 53-A, 523-537 (1971)). […]

| Compound | average chondroprotective activity (GAGs, cartilage structure, chondrocyte proliferation) [%] | global histopathological score (modified Mankin) with respect to the operated group, result in words |
| --- | --- | --- |
| N[C@@H]1C(O)O[C@H](CO)[C@@H](O)[C@@H]1O (stereo partly drawn) [mannosamine hydrochloride, 2-amino-2-deoxy-D-mannose] | −21 | no statistically significant differences |
| chondroitin sulphate | 12 | improvement with respect to the operated group, but without statistical significance |

— patent US8445462B2, “Composition for the treatment of osteoarthritis” (Bioiberica, S.A., priority 2007, dated 2013)
